For data set [1] the following is noted: 298.2 K; 101.33 kPa; Liquid; Vibrating tube method.
Data set [2] in a line: Boiling temperature at pressure P. The conditions noted are these: 101.33 kPa; Liquid; Distillation.
Data set [3] in a line: refractive index (Na D-line) (dimensionless). The following applies: 298.2 K; 101.33 kPa; Liquid; Standard Abbe refractometry.

± gives the expanded uncertainty stated by the source.

In the case of `COC(=O)OC` [dimethyl carbonate], the mass density (as a rule, the mass of a sample divided by its volume) in data set [1] worked out at 1061.9 ± 0.38 kg/m3. Also, the “Boiling temperature at pressure P” value in data set [2] came to 90.08 ± 0.29 °C. For the same molecule, the refractive index (in general, a measure of how strongly the sample bends light) in data set [3] was 1.3685 ± 0.0004.
As to `CC(=O)O` [acetic acid], the mass density in data set [1] turned out to be 1049.42 ± 0.26 kg/m3. In addition, in data set [2], the “Boiling temperature at pressure P” value was found to be 118.1 ± 0.3 °C. For the same molecule, the refractive index in data set [3] is given as 1.3713 ± 0.0003.
`O` [water]: the “Boiling temperature at pressure P” value in data set [2] came to 100.1 ± 0.3 °C. Besides, the refractive index in data set [3] is 1.3324 ± 0.0003.

Values taken from the NIST ThermoML archive (doi:10.1021/je500332k).
